Test results: patent EP4745137A1 (Gluetacs Therapeutics (Shanghai) Co., Ltd., priority 2023, dated 2025)
pIC50: −log10 of the molar value. Blank lines part the entries; values can stand above or below the compound they belong to.

Assays:
TMD8 = test: Tumor cell proliferation inhibition (CellTiter-Meiluncell Luminescent Cell Viability Assay), TMD8; settings: Homo sapiens, TMD8, 96 h, read-out: inhibitory activity (IC50, nM) against tumor cells proliferation, TMD8
Method: The tumor cells used herein were cultured in a cell culture medium listed in table 2 at 37°C in an incubator with 5% CO2. Prior to experimentation, all cell lines used were correctly identified by STR profiling, and tested negative for mycoplasma contamination using a mycoplasma detection kit through routine screenings.
On the following day, the test compounds of the present disclosure were subjected to serial dilution. […] Subsequently, 0.5 µL of the test compound dilution was transferred into the 96-well plate containing the cells, with each well containing 100 µL of cell culture medium. […] Into the 96-well plate, the diluted test compounds and corresponding detection reagents were added, resulting in final test compound concentrations of 500 nM and 10 nM, respectively. The experimental procedure is described below using the diluted 2 µM test compound as an example.
After the cells were treated with the compounds of the present disclosure for a specified period (the treatment durations were shown in Table 3), the cell viability assay reagent was added to the culture medium according to the kit's instructions to determine cell viability. […] All controls were treated using the same procedure as the compounds of the present disclosure. The growth inhibition curves for the compounds of the present disclosure were plotted using Prism GraphPad software, and the IC50 values were calculated therefrom.

IKZF2 = molecular target: T1, IKZF2 (Homo sapiens, UniProt Q96SW2+Q9UKS7); test: Western-blot assay of substrate protein degradation in hPBMCs, IKZF2; type: cell-based; settings: 24 hours of compound treatment, compounds tested at 50 nM and 500 nM (concentration of the table not stated)
T1 construct: endogenous in cells; host or cells: hPBMCs (Milecell Biotechnologies)
T1 sequence (Q9UKS7 whole entry): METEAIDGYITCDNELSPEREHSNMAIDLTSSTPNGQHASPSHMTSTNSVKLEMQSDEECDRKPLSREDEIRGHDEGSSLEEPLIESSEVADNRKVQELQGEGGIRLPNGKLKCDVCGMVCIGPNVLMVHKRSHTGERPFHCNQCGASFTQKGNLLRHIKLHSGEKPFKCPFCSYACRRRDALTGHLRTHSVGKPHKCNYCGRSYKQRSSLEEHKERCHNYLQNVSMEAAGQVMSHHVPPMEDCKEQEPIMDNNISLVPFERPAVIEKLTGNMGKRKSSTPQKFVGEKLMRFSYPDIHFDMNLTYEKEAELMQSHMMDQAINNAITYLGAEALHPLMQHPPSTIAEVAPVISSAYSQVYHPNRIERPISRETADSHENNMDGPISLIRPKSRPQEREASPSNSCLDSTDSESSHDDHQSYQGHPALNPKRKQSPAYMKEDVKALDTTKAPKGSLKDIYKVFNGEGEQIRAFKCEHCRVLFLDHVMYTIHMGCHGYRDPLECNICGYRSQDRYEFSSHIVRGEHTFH
T1 sequence (Q96SW2 whole entry): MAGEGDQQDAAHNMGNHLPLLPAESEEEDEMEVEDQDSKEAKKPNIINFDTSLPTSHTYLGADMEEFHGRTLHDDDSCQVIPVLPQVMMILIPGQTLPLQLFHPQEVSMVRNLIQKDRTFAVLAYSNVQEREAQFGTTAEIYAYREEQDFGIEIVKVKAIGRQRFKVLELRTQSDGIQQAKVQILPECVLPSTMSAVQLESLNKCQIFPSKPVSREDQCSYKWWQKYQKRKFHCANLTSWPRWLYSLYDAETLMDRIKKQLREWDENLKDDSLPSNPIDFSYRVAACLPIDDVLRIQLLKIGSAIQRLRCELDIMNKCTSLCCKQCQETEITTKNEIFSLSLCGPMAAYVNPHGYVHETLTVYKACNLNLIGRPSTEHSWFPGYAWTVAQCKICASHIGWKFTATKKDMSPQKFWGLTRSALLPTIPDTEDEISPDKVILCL
T1 sequence (Q16531 whole entry partner): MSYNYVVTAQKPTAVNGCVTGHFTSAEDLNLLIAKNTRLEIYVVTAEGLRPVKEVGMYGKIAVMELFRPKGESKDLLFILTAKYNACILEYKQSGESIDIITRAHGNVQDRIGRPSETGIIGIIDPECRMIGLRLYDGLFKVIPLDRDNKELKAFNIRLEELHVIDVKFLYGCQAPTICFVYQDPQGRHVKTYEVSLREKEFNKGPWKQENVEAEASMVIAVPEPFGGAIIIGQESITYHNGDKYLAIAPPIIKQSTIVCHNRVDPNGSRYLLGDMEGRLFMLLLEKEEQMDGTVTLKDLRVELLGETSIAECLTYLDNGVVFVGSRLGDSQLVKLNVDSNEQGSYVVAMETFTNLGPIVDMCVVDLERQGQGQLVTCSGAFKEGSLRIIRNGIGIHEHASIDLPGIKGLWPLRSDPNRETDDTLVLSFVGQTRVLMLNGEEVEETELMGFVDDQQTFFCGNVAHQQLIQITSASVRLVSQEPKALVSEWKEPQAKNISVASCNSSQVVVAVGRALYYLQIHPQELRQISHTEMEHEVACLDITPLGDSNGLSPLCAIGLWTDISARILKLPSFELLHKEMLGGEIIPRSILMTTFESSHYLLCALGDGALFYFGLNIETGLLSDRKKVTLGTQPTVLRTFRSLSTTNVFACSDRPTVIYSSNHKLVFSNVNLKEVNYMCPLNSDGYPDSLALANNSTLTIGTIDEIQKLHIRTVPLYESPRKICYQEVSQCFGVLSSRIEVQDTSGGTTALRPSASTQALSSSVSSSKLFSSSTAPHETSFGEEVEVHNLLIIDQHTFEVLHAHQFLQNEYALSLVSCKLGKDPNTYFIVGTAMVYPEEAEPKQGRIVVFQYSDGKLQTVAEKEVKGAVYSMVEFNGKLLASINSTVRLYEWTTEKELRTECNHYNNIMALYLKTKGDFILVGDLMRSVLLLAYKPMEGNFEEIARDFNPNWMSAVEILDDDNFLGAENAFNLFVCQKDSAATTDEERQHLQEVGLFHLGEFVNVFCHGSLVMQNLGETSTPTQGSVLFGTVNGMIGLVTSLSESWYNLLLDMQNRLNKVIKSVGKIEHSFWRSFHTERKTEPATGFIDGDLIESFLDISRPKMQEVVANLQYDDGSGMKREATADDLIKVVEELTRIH

WEE1 = molecular target: T2, WEE1 (Homo sapiens, UniProt P30291+Q96SW2); test: Western-blot assay of substrate protein degradation in hPBMCs, WEE1; type: cell-based; settings: 24 hours of compound treatment, compounds tested at 50 nM and 500 nM (concentration of the table not stated)
T2 construct: endogenous in cells; host or cells: hPBMCs (Milecell Biotechnologies)
T2 sequence (P30291 whole entry): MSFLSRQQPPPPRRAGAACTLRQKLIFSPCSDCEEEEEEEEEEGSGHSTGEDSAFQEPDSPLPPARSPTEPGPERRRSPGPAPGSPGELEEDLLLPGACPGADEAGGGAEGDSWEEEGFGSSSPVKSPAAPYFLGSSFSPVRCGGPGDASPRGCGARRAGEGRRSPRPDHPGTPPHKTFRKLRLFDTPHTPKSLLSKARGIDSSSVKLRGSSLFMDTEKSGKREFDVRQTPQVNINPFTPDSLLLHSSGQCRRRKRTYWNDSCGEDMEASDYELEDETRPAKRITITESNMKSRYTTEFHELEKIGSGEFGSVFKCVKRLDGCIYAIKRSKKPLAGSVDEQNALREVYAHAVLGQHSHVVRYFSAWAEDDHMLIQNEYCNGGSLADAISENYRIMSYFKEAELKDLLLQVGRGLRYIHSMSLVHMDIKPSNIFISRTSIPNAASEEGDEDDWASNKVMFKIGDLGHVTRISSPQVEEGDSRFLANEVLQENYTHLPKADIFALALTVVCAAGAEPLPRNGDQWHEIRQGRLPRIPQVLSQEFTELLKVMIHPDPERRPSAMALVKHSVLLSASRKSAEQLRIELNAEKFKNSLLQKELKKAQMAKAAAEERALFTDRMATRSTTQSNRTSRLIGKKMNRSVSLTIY
T2 sequence (Q96SW2 whole entry): as the sequence (Q96SW2 whole entry) above
T2 sequence (Q16531 whole entry partner): as the sequence (Q16531 whole entry partner) above

NCI-H1975 = test: Tumor cell proliferation inhibition (CellTiter-Meiluncell Luminescent Cell Viability Assay), NCI-H1975; settings: Homo sapiens, NCI-H1975, 96 h, read-out: inhibitory activity (IC50, nM) against tumor cells proliferation, H1975
IKZF1 = molecular target: T3, IKZF1 (Homo sapiens, UniProt Q13422+Q96SW2); test: Western-blot assay of substrate protein degradation in hPBMCs, IKZF1; type: cell-based; settings: 24 hours of compound treatment, compounds tested at 50 nM and 500 nM (concentration of the table not stated)
T3 construct: endogenous in cells; host or cells: hPBMCs (Milecell Biotechnologies)
T3 sequence (Q13422 whole entry): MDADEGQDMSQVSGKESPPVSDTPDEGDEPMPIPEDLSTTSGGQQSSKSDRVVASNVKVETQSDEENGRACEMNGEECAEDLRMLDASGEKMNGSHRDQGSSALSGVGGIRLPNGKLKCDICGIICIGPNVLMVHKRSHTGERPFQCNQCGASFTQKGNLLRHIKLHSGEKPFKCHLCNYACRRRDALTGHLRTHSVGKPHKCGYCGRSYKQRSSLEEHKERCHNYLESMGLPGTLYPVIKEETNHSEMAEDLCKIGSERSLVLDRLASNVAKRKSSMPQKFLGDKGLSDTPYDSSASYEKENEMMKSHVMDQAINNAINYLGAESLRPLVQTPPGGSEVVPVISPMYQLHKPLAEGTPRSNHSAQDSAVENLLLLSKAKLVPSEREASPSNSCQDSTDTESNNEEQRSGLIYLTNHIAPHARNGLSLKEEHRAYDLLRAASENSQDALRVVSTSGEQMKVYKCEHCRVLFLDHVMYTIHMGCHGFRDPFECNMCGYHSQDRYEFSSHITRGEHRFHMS
T3 sequence (Q96SW2 whole entry): as the sequence (Q96SW2 whole entry) above
T3 sequence (Q16531 whole entry partner): as the sequence (Q16531 whole entry partner) above

[1] = molecular target: T4, human Cereblon WT GST-tagged protein (Homo sapiens, UniProt Q96SW2); test: CRBN-binding affinity by HTRF (CEREBLON BINDING kit); settings: HTRF inhibitory activity, CEREBLON BINDING kit; read-out: HTRF IC50
T4 construct: purchased CISBIO 64BDCRBNPEH
T4 sequence (Q96SW2 whole entry): as the sequence (Q96SW2 whole entry) above

[2] = test system: Human breast cancer cells (MDA-MB-231); test: Tumor cell proliferation inhibition (CellTiter-Meiluncell Luminescent Cell Viability Assay), MDA-MB-231; settings: MDA-MB-231, 96 h, read-out: inhibitory activity (IC50, nM) against tumor cells proliferation, MDA-MB-231
GSPT1 = molecular target: T5, GSPT1 (Homo sapiens, UniProt P15170+Q96SW2); test: Western-blot assay of substrate protein degradation in hPBMCs, GSPT1; type: cell-based; settings: 24 hours of compound treatment, compounds tested at 50 nM and 500 nM (concentration of the table not stated)
T5 construct: endogenous in cells; host or cells: hPBMCs (Milecell Biotechnologies)

[3] = test system: Human acute T lymphocytic leukemia cells (Molt-4); test: Tumor cell proliferation inhibition (CellTiter-Meiluncell Luminescent Cell Viability Assay), Molt-4; settings: MOLT-4, 96 h, read-out: inhibitory activity (IC50, nM) against tumor cells proliferation, Molt 4
CK1α = molecular target: T6, CK1α (Homo sapiens, UniProt P48729+Q96SW2); test: Western-blot assay of substrate protein degradation in hPBMCs, CK1α; type: cell-based; settings: 24 hours of compound treatment, compounds tested at 50 nM and 500 nM (concentration of the table not stated)
T6 construct: endogenous in cells; host or cells: hPBMCs (Milecell Biotechnologies)
T6 sequence (P48729 whole entry): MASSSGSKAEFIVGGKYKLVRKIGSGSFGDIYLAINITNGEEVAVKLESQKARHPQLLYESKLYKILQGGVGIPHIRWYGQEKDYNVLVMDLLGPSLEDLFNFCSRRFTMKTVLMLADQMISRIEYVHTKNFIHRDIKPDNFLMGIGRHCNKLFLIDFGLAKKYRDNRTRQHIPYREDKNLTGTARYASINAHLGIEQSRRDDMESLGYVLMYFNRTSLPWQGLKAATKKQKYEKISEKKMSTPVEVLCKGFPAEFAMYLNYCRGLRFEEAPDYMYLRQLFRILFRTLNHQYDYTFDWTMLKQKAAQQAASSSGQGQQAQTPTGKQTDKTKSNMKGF
T6 sequence (Q96SW2 whole entry): as the sequence (Q96SW2 whole entry) above
T6 sequence (Q16531 whole entry partner): as the sequence (Q16531 whole entry partner) above

IKZF3 = molecular target: T7, IKZF3 (Homo sapiens, UniProt Q96SW2+Q9UKT9); test: Western-blot assay of substrate protein degradation in hPBMCs, IKZF3; type: cell-based; settings: 24 hours of compound treatment, compounds tested at 50 nM and 500 nM (concentration of the table not stated)
T7 construct: endogenous in cells; host or cells: hPBMCs (Milecell Biotechnologies)
T7 sequence (Q9UKT9 whole entry): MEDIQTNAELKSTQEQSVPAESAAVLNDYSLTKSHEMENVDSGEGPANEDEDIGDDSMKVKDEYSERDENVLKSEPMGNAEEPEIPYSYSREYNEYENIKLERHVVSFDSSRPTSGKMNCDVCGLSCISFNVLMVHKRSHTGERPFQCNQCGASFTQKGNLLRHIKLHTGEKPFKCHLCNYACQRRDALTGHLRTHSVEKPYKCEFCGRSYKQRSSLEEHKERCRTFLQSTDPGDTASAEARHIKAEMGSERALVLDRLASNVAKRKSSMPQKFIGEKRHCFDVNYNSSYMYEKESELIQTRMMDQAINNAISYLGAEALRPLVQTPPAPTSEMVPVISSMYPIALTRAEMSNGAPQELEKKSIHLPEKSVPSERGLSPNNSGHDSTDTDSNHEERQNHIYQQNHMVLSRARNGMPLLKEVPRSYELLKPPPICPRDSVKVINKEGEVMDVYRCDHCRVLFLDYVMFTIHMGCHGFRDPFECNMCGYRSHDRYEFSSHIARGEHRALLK
T7 sequence (Q96SW2 whole entry): as the sequence (Q96SW2 whole entry) above
T7 sequence (Q16531 whole entry partner): as the sequence (Q16531 whole entry partner) above

Compound: Cc1ccsc1C1=CCN(Cc2ccc3c(c2F)CN(C2CCC(=O)NC2=O)C3=O)CC1 (stereo not drawn) [GT-04729, 3-(4-fluoro-5-((4-(3-methylthiophen-2-yl)-3,6-dihydropyridin-1(2H)-yl)methyl)-1-oxoisoindolin-2-yl)piperidine-2,6-dione]
IC50 (TMD8): 10 to 50 nM | IKZF2 substrate protein remaining % (IKZF2): A (0% ≤ substrate protein remaining % ≤ 80%) | Weel substrate protein remaining % (WEE1): A (0% ≤ substrate protein remaining % ≤ 80%) | IC50 (NCI-H1975): 10 to 50 nM | IKZF 1 substrate protein remaining % (IKZF1): A (0% ≤ substrate protein remaining % ≤ 80%) | pIC50 [1]: 6.00 to 6.30 | IC50 [2]: 1 to 5 nM | GSPT1 substrate protein remaining % (GSPT1): A (0% ≤ substrate protein remaining % ≤ 80%) | IC50 [3]: 1 to 5 nM | CK1a substrate protein remaining % (CK1α): B (80%< substrate protein remaining %≤ 100%) | IKZF3 substrate protein remaining % (IKZF3): A (0% ≤ substrate protein remaining % ≤ 80%)

Compound: Cc1ccsc1C1=CCN(Cc2cc(F)c3c(c2)CN(C2CCC(=O)NC2=O)C3=O)CC1 (stereo not drawn) [GT-04730, 3-(7-fluoro-5-((4-(3-methylthiophen-2-yl)-3,6-dihydropyridin-1(2H)-yl)methyl)-1-oxoisoindolin-2-yl)piperidine-2,6-dione]
IC50 (TMD8): 10 to 50 nM | IKZF2 substrate protein remaining % (IKZF2): A (0% ≤ substrate protein remaining % ≤ 80%) | Weel substrate protein remaining % (WEE1): A (0% ≤ substrate protein remaining % ≤ 80%) | IC50 (NCI-H1975): 10 to 50 nM | IKZF 1 substrate protein remaining % (IKZF1): A (0% ≤ substrate protein remaining % ≤ 80%) | pIC50 [1]: 6.00 to 6.30 | IC50 [2]: 10 to 50 nM | GSPT1 substrate protein remaining % (GSPT1): A (0% ≤ substrate protein remaining % ≤ 80%) | IC50 [3]: 1 to 5 nM | CK1a substrate protein remaining % (CK1α): A (0% ≤ substrate protein remaining % ≤ 80%) | IKZF3 substrate protein remaining % (IKZF3): A (0% ≤ substrate protein remaining % ≤ 80%)

IC50 (TMD8): 100 to 500 nM | IC50 (NCI-H1975): 50 to 100 nM | pIC50 [1]: 5.82 to 6.00 | IC50 [2]: 10 to 50 nM | IC50 [3]: 5 to 10 nM
Compound: O=C1CCC(N2Cc3c(ccc(CN4CCC(c5noc6cc(F)ccc56)CC4)c3F)C2=O)C(=O)N1 (stereo not drawn) [GT-04765, 3-(4-fluoro-5-((4-(6-fluorobenzo[d]isoxazol-3-yl)piperidin-1-yl)methyl)-1-oxoisoindolin-2-yl)piperidine-2,6-dione]
IKZF2 substrate protein remaining % (IKZF2): A (0% ≤ substrate protein remaining % ≤ 80%) | Weel substrate protein remaining % (WEE1): A (0% ≤ substrate protein remaining % ≤ 80%) | IKZF 1 substrate protein remaining % (IKZF1): A (0% ≤ substrate protein remaining % ≤ 80%) | GSPT1 substrate protein remaining % (GSPT1): A (0% ≤ substrate protein remaining % ≤ 80%) | CK1a substrate protein remaining % (CK1α): A (0% ≤ substrate protein remaining % ≤ 80%) | IKZF3 substrate protein remaining % (IKZF3): A (0% ≤ substrate protein remaining % ≤ 80%)
